Experimental data: patent US20220241412A1, “COMBINATION THERAPIES USING CDK INHIBITORS” (Pfizer Inc., priority 2019, published 2022)

Columns and labels:
Assay type in all cases: in vivo
MC38 tumor cells [1] = experiment: MC38 syngeneic mouse tumor model, PF-06873600 with checkpoint antibodies (Example 2); conditions: for tumor growth inhibition (in words): MC38 model, day 27 post-treatment initiation; for CR % on day 27: complete response; for CR % on day 27 / TGI % on day 27: day 27, s.c. MC38 tumors in female C57/BL6 mice, doses as in Table 10; for TGI % on day 27: tumor growth inhibition
Method: MC38 cells were obtained from American Type Culture Collection (ATCC) and cultured in Roswell Park Memorial Institute (RPMI1640) supplemented with 10% fetal bovine serum (FBS). All cells were maintained in a humidified incubator at 37° C. with 5% carbon dioxide (CO2). Female C57/BL6 mice were obtained from Jackson Laboratories at 8 weeks of age. To generate the syngeneic model, 0.5 million MC38 tumor cells were subcutaneously implanted into the right flank of female C57/BL6 mice. Tumor bearing mice were randomized into nine treatment groups based on average tumor sizes of approximately 70 mm^3 per group, on Day 9 post tumor cell implantation. Study groups included vehicle, 30 mg/kg PF-06873600 (CDK 2/4/6 inhibitor) twice daily by oral gavage, avelumab (anti-PD-L1 antibody, PF-06834635) administered by intraperitoneal (IP) injection, 10 mg/kg, combination of avelumab administered at 10 mg/kg with anti-OX40 antibody (PF-07201252) administered at 5 mg/kg by IP injection, combination of anti-PD-L1 antibody administered at 10 mg/kg with anti-4-1BB antibody (PF-07218859) administered at 3 mg/kg by IP injection, combination of anti-PD-L1 antibody as described above with PF-06873600 administered at 30mg/kg twice daily by oral gavage, combination of anti-PD-L1 antibody and anti-OX40 antibody as described above with PF-06873600 administered at 30 mg/kg twice daily by oral gavage, combination of anti-PD-L1 antibody with anti-4-1BB antibody as described above with PF-06873600 administered at 30mg/kg twice daily by oral gavage and combination of anti-PD-L1 antibody, anti-OX40 antibody and anti-41-BB antibody as described above with PF-06873600 administered at 30 mg/kg twice daily by oral gavage. All antibodies were administered as three doses; one every three days after the study initiation. All antibody formulations are phosphate buffered saline based while PF-06873600 was administered in a 0.5% methocel/Tween suspension.
Tumor volumes were measured three times a week. Tumor volume was calculated based on two-dimensional caliper measurement with cubic millimeter volume calculated using the formula (length×width2)×0.5. Mice were sacrificed when the tumor volumes reached 2000 mm^3, which was the survival endpoint for this study. Survival curves were plotted using GraphPad Prism 7 software. Statistical significance determined using the Holm-Sidak method, with alpha=0.05.

4T1 tumor cells = experiment: 4T1 syngeneic mouse tumor model, PF-06873600 with checkpoint antibodies (Example 7)
Method: 4T1 cells were obtained from American Type Culture Collection (ATCC) and cultured in Roswell Park Memorial Institute (RPMI1640) supplemented with 10% fetal bovine serum (FBS). All cells were maintained in a humidified incubator at 37° C. with 5% carbon dioxide (CO2). Female C57/BL6 mice were obtained from Jackson Laboratories at 8 weeks of age. To generate the syngeneic model, 30,000 4T1 tumor cells were subcutaneously implanted into the right flank of […]. Tumor bearing mice were randomized into four treatment groups based on average tumor sizes of approximately 70 mm^3 per group. Study groups included vehicle, 30 mg/kg PF-06873600 (CDK 2/4/6 inhibitor) twice daily by oral gavage, combination of 10 mg/kg anti-PD-1 antibody (PF-06937004) with 5 mg/kg anti-OX40 antibody (PF-07201252) and with 3 mg/kg anti-4-1BB antibody (PF-07218859) all administered by IP injection, and the combination of PF-06873600, anti-PD-1 antibody, anti-OX40 antibody and anti-41-BB antibody dosed as described in the cohorts above. […]
(§1) Tumor volumes were measured three times a week. Tumor volume was calculated based on two-dimensional caliper measurement with cubic millimeter volume calculated using the formula (length×width2)×0.5. […] Statistical significance determined using the Holm-Sidak method, with alpha=0.05.

MC38 tumor cells [2] = experiment: MC38 syngeneic mouse tumor model, palbociclib with checkpoint antibodies (Example 1)
Method: MC38 cells were obtained from American Type Culture Collection (ATCC) and cultured in Roswell Park Memorial Institute (RPMI1640) supplemented with 10% fetal bovine serum (FBS). All cells were maintained in a humidified incubator at 37° C. with 5% carbon dioxide (CO2). Female C57/BL6 mice were obtained from Jackson Laboratories at 8 weeks of age. To generate the syngeneic model, 0.5 million MC38 tumor cells were subcutaneously implanted into the right flank of female C57/BL6 mice. Tumor bearing mice were randomized into four treatment groups based on average tumor sizes of approximately 70 mm^3 per group, on Day 9 post tumor cell implantation. […]
as §1

Compound | tumor growth inhibition (in words) (MC38 tumor cells [1]) | CR % on day 27 (MC38 tumor cells [1]) | TGI % on day 27 (MC38 tumor cells [1]) | tumor growth inhibition (in words) (4T1 tumor cells; 4T1 model, day 18 post-treatment initiation) | TGI % on day 27 (4T1 tumor cells; tumor growth inhibition, s.c. 4T1 tumors in female C57/BL6 mice, doses as in Table 16) | tumor growth inhibition (in words) (MC38 tumor cells [2]; MC38 model, day 27 post-treatment initiation) | TGI % on day 27 (MC38 tumor cells [2]; tumor growth inhibition, day 27, s.c. MC38 tumors in female C57/BL6 mice, doses as in Table 8)
C[C@@]1(O)CCC[C@H]1n1c(=O)c(C(F)F)cc2cnc(NC3CCN(S(C)(=O)=O)CC3)nc21 [PF-06873600, 6-(difluoromethyl)-8-((1R,2R)-2-hydroxy-2-methylcyclopentyl)-2-(1-(methylsulfonyl)piperidin-4-ylamino)pyrido[2,3-d]pyrimidin-7(8H)-one] | did not significantly inhibit tumor growth | 0% | −7% | significantly inhibited tumor growth | 66% | – | –
CC(=O)c1c(C)c2cnc(Nc3ccc(N4CCNCC4)cn3)nc2n(C2CCCC2)c1=O [palbociclib, 6-acetyl-8-cyclopentyl-5-methyl-2-(5-piperazin-1-yl-pyridin-2-ylamino)-8H-pyrido[2,3-d]pyrimidin-7-one] | – | – | – | – | – | did not significantly inhibit tumor growth | 29%
PF-06834635: avelumab (anti-PD-L1 antibody, PF-06834635) | did not significantly inhibit tumor growth | 0% | 9% | – | – | – | –
